Values joined by “and” are separate entries in the source; they are usually repeats but may differ in a detail not shown here. Identical values can stand only once.

Data set [1] concerns renal damage after administration of Cisplatin to mice. Kind of data set: Renal damage after administration of Cisplatin to mice (nephrotoxicity model). Type of data set: in vivo, male mice C57BL6/J. Conditions: for Body weight: Cisplatin mice (20 mg/Kg i.p.); for Concentration of creatinine in the serum / Kidney weight/body weight / Amount of albumin excreted with urine (18 hrs prior to sacrifice): Cisplatin mice. From the text: Cisplatin, a known and widely used chemotherapy agent, notoriously produces a serious renal damage in 50% of the patients subjected to treatment. Experimentally an animal model is used in mice, in which Cisplatin induces serious nephrotoxicity with ensuing renal disease. The model applied is as follows: male mice C57BL6/J were kept under standard conditions of care. Nephrotoxicity was induced into 8-weeks old mice and with an average weight of about 23 g, by means of an intraperitoneal injection of Cisplatin dihydrochloride in saline solution (20 mg/Kg in one administration). The control animals were treated in the same conditions using the saline solution alone. The animals were sacrificed 72 hrs after treatment with Cisplatin.
6 treatments were administered orally, one each 12 hrs by means of a tube, using both micronized palmitoylethanolamide-PEAm (10.0 mg/Kg) suspended in a carrier and ultra-micronized palmitoylethanolamide-PEAum (10.0 mg/Kg) suspended in a carrier; the first treatment was carried out 12 hours prior to the administration of the Cisplatin. The results were compared with control animals treated with the carrier alone. A 0.5% carboxymethyl cellulose solution was used as the carrier.
Diethanolamide of fumaric acid was administered in sterile aqueous saline solution by intraperitoneal injection (10.0 mg/Kg) with posology analogous to that of PEA; the results were compared with animals treated with sterile saline solution alone.
Prior to sacrifice, the blood was collected from the saphenous vein using a micro syringe to measure, through conventional methods, the levels of creatinine of the serum.

The subject of data set [2] is TGF-1β. As to the kind of experiment: TGF-1β in renal cortex by ELISA, Cisplatin mice. Conditions: pg/mg of total proteins. The data set is classed as in vivo, male mice C57BL6/J. Here is the method: (§1) The level of TGF-1β on the renal tissue was measured through the following method: small pieces of the renal cortex, carefully separated and weighed, were homogenised in Tris-HCl 10 mM buffer at a 7.4 pH containing 2M of NaCl, 1 mM PMSF (phenylmethylsulfonyl fluoride, as a protease inhibitor), 1 mM EDTA and 0.01% of Tween 80. The samples were centrifuged at 19,000 rpm for 30 minutes and the supernatant was collected, measured and preserved at −80° C. The amount of the TGF-1β was measured using the ELISA commercial kit (Quantikine Kit™, Res & Diagn Systems, Minneapolis, USA) and the value expressed in pg/mg of total proteins. The concentration of total proteins was measured using the Bio-Rad commercial test (Hercules, Calif., USA).
(In general: An ELISA detects its analyte on a solid surface through an enzyme-linked reagent.)

Data set [3] has as its system renal function of nephropathic patients. Kind of data set: Effect of ultra-micronized palmitoylethanolamide in nephropathic patients. The data set is classed as in vivo, human. The settings on record: 600 mg tablets, 2 per day, 60 days; for GFR Glomerulal Filtration Rate (Creatinine Clearance) T 60: Cockcroft-Gault; for Glycemia under fasting T 60: single patients Paz-04, -05, -06, diabetic nephropathy, compensated with insulin, T 0 values 210, 240, 280 mg/dl. Here is the method:
Palmitoylethanolamide was administered to patients in form of tablets each containing 600 mg of active ingredient in ultra-micronized form; 2 tablets per day (one every 12 hours, after meals) were administered to patients for 60 consecutive days).
Determination of the GRF (Glomerular Filtration Rate) by the creatinine endogenous marker was carried out according to the […] criteria (K/DOQI clinical practice guidelines for chronic kidney disease, 2002), using the Cockcroft-Gault equation (Cockcroft D. W. et al, 1976).

The subject of data set [4] is renal damage after administration of streptozotocin to mice. As to the kind of experiment: Renal damage after administration of streptozotocin to mice (diabetic nephropathy model). The data set is classed as in vivo, male mice C57BL6/J. The text has this: The model of streptozootocin in mice represents a classic and known model of hyperglycemia capable of inducing a progressive renal damage into the animal leading to the renal disease with clear alterations of the characteristic parameters.
The model applied is as follows: male mice C57BL6/J were kept under standard conditions of care. Diabetes was induced into 8-weeks old mice and with an average weight of about 22 g by means of an intraperitoneal injection of streptozotocin in citrate buffer (55 mg/Kg of weight/day) for 5 consecutive days. The control animals were treated in the same conditions using the citrate buffer alone.
Treatments were administered orally, by means of a tube, using both micronized Palmitoylethanolamide- PEAm (10.0 mg/Kg) suspended in a carrier and ultra-micronized palmitoylethanolamide PEAum (10.0 mg/Kg) suspended in a carrier; the results were compared with control animals treated with the carrier alone. A 0.5% carboxymethyl cellulose was used as a carrier.
Diethanolamide of fumaric acid was administered in sterile aqueous saline solution by intraperitoneal injection (10.0 mg/Kg); the results were compared with the animals treated with sterile saline solution alone.
Administration of the carrier and of the two different suspensions containing palmitoylethanolamide or of the injection solution containing diethanolamide of fumaric acid, were performed once per day starting from the day of the last administration of Streptozotocin. Prior to sacrifice, the blood was collected from the saphenous vein using a micro syringe to determining, through conventional methods, the levels of glycemia, glycated haemoglobin and creatinine of the serum.

Data set [5] deals with TGF-1β. As to the kind of experiment: TGF-1β in renal cortex by ELISA, streptozotocin mice. The data set is classed as in vivo, male mice C57BL6/J. The settings on record: pg/mg of total proteins, diabetic mice. The protocol: as §1, with “The evaluation of TGF-1β” for “The level of TGF-1β”, “tissue was administered through the” for “tissue was measured through the”, “buffer at 7.4 pH” for “buffer at a 7.4 pH”, “protease inhibitor), 1mM EDTA and” for “protease inhibitor), 1 mM EDTA and”, “C. The evaluation of the” for “C. The amount of the”, “TGF-1β was made using the” for “TGF-1β was measured using the”

Data set [6] in a line: Solubility in water. The data set is classed as physicochemical.
The mark [7] stands for this setting: 10.0 mg/Kg orally every 12 hrs x6, sacrifice 72 hrs, carrier alone 23.10 ± 1.22, control 26.12 ± 1.11.
Setting [8] is: 10.0 mg/Kg orally every 12 hrs x6, carrier alone 1.26 ± 0.05, control 0.22 ± 0.01, 10 mg/kg.
The mark [9] stands for this setting: 10.0 mg/Kg orally every 12 hrs x6, carrier alone 7.22 ± 0.80, control 6.44 ± 0.03, 10 mg/kg.
Where [10] appears, read: 10.0 mg/Kg orally every 12 hrs x6, carrier alone 363.75, control 37.4, 10 mg/kg.
Where [11] appears, read: 10.0 mg/Kg orally every 12 hrs x6, carrier alone 25.3 ± 6.0, control 8.2 ± 0.7, 10 mg/kg.
[12] abbreviates: 10.0 mg/Kg orally once per day in 0.5% carboxymethyl cellulose, carrier alone 25.12 ± 1.10, non-diabetic 27.82 ± 1.18, 10 mg/kg.
The mark [13] stands for this setting: 10.0 mg/Kg orally once per day, carrier alone 1.11 ± 0.02, non-diabetic 0.21 ± 0.01, 10 mg/kg.
Where [14] appears, read: 10.0 mg/Kg orally once per day, carrier alone 8.65 ± 0.85, non-diabetic 6.65 ± 0.04, 10 mg/kg.
[15] abbreviates: 10.0 mg/Kg orally once per day, carrier alone 12.80 ± 0.44, non-diabetic 4.89 ± 0.05, 10 mg/kg.
Setting [16] is: 10.0 mg/Kg orally once per day, carrier alone 340.5, non-diabetic 33.7, 10 mg/kg.
Setting [17] is: 10.0 mg/Kg orally once per day, carrier alone 408.45 ± 33.12, non-diabetic 122.2 ± 5.62, 10 mg/kg.
Setting [18] is: 10.0 mg/Kg orally once per day, carrier alone 24.2 ± 5.8, non-diabetic 7.5 ± 0.8, 10 mg/kg.

As for `CCCCCCCCCCCCCCCC(=O)NCCO` [PEAum, Palmitoylethanolamide], the “Body weight” value was found to be 24.55 ± 1.09 g in data set [1] (setting [7]) and 26.12 ± 1.21 g in data set [4] (setting [12]). For the same compound, the “Concentration of creatinine in the serum” value in data set [1] (setting [8]) is 0.48 ± 0.02 mg/dL; in data set [4] (setting [13]) it was 0.44 ± 0.01 mg/dL. Moreover, the values for the Kidney weight/body weight in data set [1] (setting [9]) and in data set [4] (setting [14]) were 6.89 ± 0.42 and 7.15 ± 0.38, respectively. Also, the “Amount of albumin excreted with urine (18 hrs prior to sacrifice)” value (“Amount of albumin excreted with urine” below) in data set [1] (setting [10]) was 175.9; in data set [4] (setting [16]) it was 151.5. Moreover, the “TGF-1β level in renal cortex (pg/mg total protein)” value (“TGF-1β level in renal cortex” for short) in data set [2] (setting [11]) turned out to be 9.4 ± 3.2 pg/mg. For the same compound, the “GFR Glomerulal Filtration Rate (Creatinine Clearance) T 60” value in data set [3] (single patients Paz-01, -02, -03, chronic inflammatory nephropathy, T 0 values 26.4, 21.4, 20.7) was 44.6 and 35.2 and 36.1; in data set [3] (single patients Paz-04, -05, -06, diabetic nephropathy (diabetes type 2), T 0 values 18.9, 22.4, 21.8) it was 41.4 and 35.6 and 39.8. The “Glycemia under fasting T 60” value amounted to 230 mg/dL in data set [3] (with 10 U ready insulin), 210 mg/dL in data set [3] (with 10 U ready plus 20 U retard insulin) and 110 mg/dL in data set [3] (with 12 U retard insulin). In data set [4] (setting [15]), this compound returned a Glycated haemoglobin % of 11.01 ± 0.18%. Further, the “Glycemia” value in data set [4] (setting [17]) was determined as 380.34 ± 34.16 mg/dL. In addition, the “Level of TGF-1β” value in data set [5] (setting [18]) amounted to 10.3 ± 2.5 pg/mg.
Regarding `CCCCCCCCCCCCCCCC(=O)NCCO` [PEAm, Palmitoylethanolamide], the “Body weight” value was 23.58 ± 1.13 g in data set [1] (setting [7]) and 26.52 ± 1.08 g in data set [4] (setting [12]). The “Concentration of creatinine in the serum” value is 0.92 ± 0.03 mg/dL in data set [1] (setting [8]) and 0.81 ± 0.01 mg/dL in data set [4] (setting [13]). The Kidney weight/body weight in data set [1] (setting [9]) amounted to 7.85 ± 0.34; in data set [4] (setting [14]), 7.85 ± 0.44. Moreover, the “Amount of albumin excreted with urine” value is listed as 270.90 in data set [1] (setting [10]) and 289.4 in data set [4] (setting [16]). Also, in data set [2] (setting [11]), the “TGF-1β level in renal cortex” value stood at 15.8 ± 3.5 pg/mg. In addition, the Glycated haemoglobin % in data set [4] (setting [15]) is 11.32 ± 0.38%. The “Glycemia” value in data set [4] (setting [17]) is 386.12 ± 36.76 mg/dL. Moreover, the “Level of TGF-1β” value in data set [5] (setting [18]) came to 15.0 ± 3.0 pg/mg.
As to `O=C(/C=C/C(=O)NCCO)NCCO` [diethanolamide of fumaric acid, Diethanolamide of fumaric acid], the “Body weight” value in data set [1] (10.0 mg/Kg i.p. in saline solution, posology as PEA, saline alone 24.22 ± 1.45, control 26.12 ± 1.11) stood at 24.15 ± 1.12 g; in data set [4] (10.0 mg/Kg i.p. once per day in saline solution, saline alone 24.43 ± 1.15, non-diabetic 27.82 ± 1.18), 26.22 ± 1.02 g. In addition, the “Concentration of creatinine in the serum” value was determined as 0.83 ± 0.06 mg/dL in data set [1] (10.0 mg/Kg i.p., saline alone 1.36 ± 0.02, control 0.22 ± 0.01) and 0.51 ± 0.03 mg/dL in data set [4] (10.0 mg/Kg i.p. once per day, saline alone 1.51 ± 0.08, non-diabetic 0.21 ± 0.01). In addition, the Kidney weight/body weight is 6.58 ± 0.26 in data set [1] (10.0 mg/Kg i.p., saline alone 8.15 ± 0.46, control 6.44 ± 0.03) and 7.02 ± 0.46 in data set [4] (10.0 mg/Kg i.p. once per day, saline alone 9.00 ± 0.56, non-diabetic 6.65 ± 0.04). Besides, the “Amount of albumin excreted with urine” value in data set [1] (10.0 mg/Kg i.p., saline alone 351.57, control 37.4) came out at 181.4; in data set [4] (10.0 mg/Kg i.p. once per day, saline alone 315.05, non-diabetic 33.7), 135.7. For the same compound, the “TGF-1β level in renal cortex” value in data set [2] (10.0 mg/Kg i.p., saline alone 22.1 ± 4.3, control 8.2 ± 0.7) was 9.1 ± 2.8 pg/mg. The Glycated haemoglobin % in data set [4] (10.0 mg/Kg i.p. once per day, saline alone 13.41 ± 0.63, non-diabetic 4.89 ± 0.05) amounted to 12.12 ± 0.26%. Moreover, the “Glycemia” value in data set [4] (10.0 mg/Kg i.p. once per day, saline alone 406.32 ± 33.44, non-diabetic 122.2 ± 5.62) came out at 386.19 ± 33.98 mg/dL. The Solubility in water entry in data set [6] is given as “high solubility”. The “Level of TGF-1β” value in data set [5] (10.0 mg/Kg i.p. once per day, saline alone 25.3 ± 4.6, non-diabetic 7.5 ± 0.8) came to 11.7 ± 3.2 pg/mg.

Values taken from US9402818B2, “Use of amides of mono- and dicarboxylic acids in the treatment of renal diseases” (priority 2010, dated 2016).
